Experimental data as given in US5202315A, “Cephalosporin compounds” (Lucky, Ltd., priority 1989, dated 1993).
Values after ≈ are worked out from the molar mass of the structure shown. Read-outs that look alike come from different tables or passages of the source.

Legend:
Test in all cases: Antibacterial activity, MIC
Assay type in all cases: cell-based
[1] = test system: Bacillus cereus ATCC 11778; conditions: ATCC11778, ATCC 11778, agar two-fold dilution, 37° C., 20 hours, read-out: MIC
Summary of the method: (§1)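 Agar two-fold dilution method: compound serially diluted two-fold in Mueller-Hinton agar, spotted with 2 μl of a 10^7 CFU/ml inoculum of each standard strain, then incubated at 37 °C for 20 h.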

[2] = test system: Shigella sonnei ATCC 11060
Summary of the method: as §1

[3] = test system: Proteus vulgaris ATCC 6059; conditions: ATCC6059, ATCC 6059, agar two-fold dilution, 37° C., 20 hours, read-out: MIC
Summary of the method: as §1

[4] = test system: Acinetobacter calcoaceticus ATCC 15473; conditions: ATCC15473, ATCC 15473, agar two-fold dilution, 37° C., 20 hours, read-out: MIC
Summary of the method: as §1

[5] = test system: Staphylococcus epidermidis ATCC 12228; conditions: ATCC12228, ATCC 12228, agar two-fold dilution, 37° C., 20 hours, read-out: MIC
Summary of the method: as §1

[6] = test system: Pseudomonas aeruginosa ATCC 10145; conditions: ATCC10145, ATCC 10145, agar two-fold dilution, 37° C., 20 hours, read-out: MIC
Summary of the method: as §1

[7] = test system: Enterobacter aerogenes ATCC 29751; conditions: Klebsiella aerogenes, ATCC29751; ATCC 29751; agar two-fold dilution, 37° C., 20 hours; read-out: MIC
Summary of the method: as §1

[8] = test system: Bacillus megaterium ATCC 9885; conditions: Priestia megaterium, ATCC9885; ATCC 9885; agar two-fold dilution, 37° C., 20 hours; read-out: MIC
Summary of the method: as §1

[9] = test system: Serratia marcescens ATCC 27117; conditions: ATCC27117, ATCC 27117, agar two-fold dilution, 37° C., 20 hours, read-out: MIC
Summary of the method: as §1

[10] = test system: Micrococcus luteus ATCC 9341; conditions: ATCC9341, ATCC 9341, agar two-fold dilution, 37° C., 20 hours, read-out: MIC
Summary of the method: as §1

[11] = test system: Staphylococcus aureus ATCC 10537; conditions: ATCC10537, ATCC 10537, agar two-fold dilution, 37° C., 20 hours, read-out: MIC
Summary of the method: as §1

[12] = test system: Morganella morganii ATCC 8076h; conditions: ATCC8076H, agar two-fold dilution, 37° C., 20 hours
Summary of the method: as §1

[13] = test system: Escherichia coli ATCC 25922; conditions: ATCC25922, agar two-fold dilution, 37° C., 20 hours
Summary of the method: as §1

[14] = test system: Proteus mirabilis ATCC 25933; conditions: ATCC25933, ATCC 25933, agar two-fold dilution, 37° C., 20 hours, read-out: MIC
Summary of the method: as §1

[15] = test system: Escherichia coli ATCC 10536; conditions: ATCC10536, agar two-fold dilution, 37° C., 20 hours
Summary of the method: as §1

[16] = test system: Salmonella typhimurium ATCC 14028; conditions: Salmonella enterica; ATCC 14028; agar two-fold dilution, 37° C., 20 hours; read-out: MIC
Summary of the method: as §1

[17] = test system: Shigella flexneri ATCC 11836; conditions: ATCC11836, agar two-fold dilution, 37° C., 20 hours
Summary of the method: as §1

[18] = test system: Staphylococcus aureus ATCC 6538p; conditions: ATCC6538P, ATCC 6538p, agar two-fold dilution, 37° C., 20 hours, read-out: MIC
Summary of the method: as §1

[19] = test system: Pseudomonas aeruginosa ATCC 25619; conditions: ATCC25619, ATCC 25619, agar two-fold dilution, 37° C., 20 hours, read-out: MIC
Summary of the method: as §1

[20] = test system: Streptococcus faecalis ATCC 29212; conditions: Enterococcus faecalis, ATCC29212; ATCC 29212; agar two-fold dilution, 37° C., 20 hours; read-out: MIC
Summary of the method: as §1

[21] = test system: Klebsiella pneumoniae ATCC 10031; conditions: ATCC10031, ATCC 10031, agar two-fold dilution, 37° C., 20 hours, read-out: MIC
Summary of the method: as §1

[22] = test system: Citrobacter freundii ATCC 8090; conditions: ATCC8090, ATCC 8090, agar two-fold dilution, 37° C., 20 hours, read-out: MIC
Summary of the method: as §1

[23] = test system: Pseudomonas aeruginosa ATCC 27853; conditions: ATCC27853, ATCC 27853, agar two-fold dilution, 37° C., 20 hours, read-out: MIC
Summary of the method: as §1

[24] = test system: Enterobacter cloacae ATCC 27508; conditions: ATCC27508, ATCC 27508, agar two-fold dilution, 37° C., 20 hours, read-out: MIC
Summary of the method: as §1

[25] = test system: Providencia rettgeri ATCC 9250; conditions: ATCC9250, agar two-fold dilution, 37° C., 20 hours
Summary of the method: as §1

[26] = ATCC11060, ATCC 11060, agar two-fold dilution, 37° C., 20 hours, read-out: MIC

Row | Structure (SMILES) | MIC [1] [µg/mL] | MIC [3] [µg/mL] | MIC [4] [µg/mL] | MIC [5] [µg/mL] | MIC [6] [µg/mL] | MIC [7] [µg/mL] | MIC [8] [µg/mL] | MIC [9] [µg/mL] | MIC [10] [µg/mL] | MIC [11] [µg/mL] | MIC [12] [µg/mL] | MIC [13] [µg/mL] | MIC [14] [µg/mL] | MIC [15] [µg/mL] | MIC [16] [µg/mL] | MIC [17] [µg/mL] | MIC [18] [µg/mL] | MIC [19] [µg/mL] | MIC [20] [µg/mL] | MIC [21] [µg/mL] | also measured
1 | C=CC[n+]1c(N)cc(N)nc1SCC1=C(C(=O)[O-])N2C(=O)C(NC(=O)/C(=N\OC(C)(C)C(=O)O)c3csc(N)n3)C2SC1 (stereo not drawn) [Compound I-3] | 64 (≈ 98.5 µM) | 0.031 (≈ 0.0477 µM) | 4 (≈ 6.16 µM) | 2 (≈ 3.08 µM) | 2 (≈ 3.08 µM) | 2 (≈ 3.08 µM) | 0.5 (≈ 0.77 µM) | 0.13 (≈ 0.2 µM) | 0.25 (≈ 0.385 µM) | 2 (≈ 3.08 µM) | ≤ 0.008 | 0.13 (≈ 0.2 µM) | 0.031 (≈ 0.0477 µM) | 0.13 (≈ 0.2 µM) | 0.25 (≈ 0.385 µM) | 0.031 (≈ 0.0477 µM) | 4 (≈ 6.16 µM) | 1 (≈ 1.54 µM) | > 128 | 0.063 (≈ 0.097 µM) | MIC [2, 26]: 0.063 µg/mL (≈ 0.097 µM); MIC [22]: 0.13 µg/mL (≈ 0.2 µM); MIC [23]: 2 µg/mL (≈ 3.08 µM); MIC [24]: 0.031 µg/mL (≈ 0.0477 µM); MIC [25]: ≤ 0.008 µg/mL
2 | CCCC[n+]1c(N)cc(N)nc1SCC1=C(C(=O)[O-])N2C(=O)C(NC(=O)/C(=N\OC(C)(C)C(=O)O)c3nsc(N)n3)C2SC1 (stereo not drawn) [Compound I-29] | 128 (≈ 192 µM) | 1 (≈ 1.5 µM) | 32 (≈ 48 µM) | 8 (≈ 12 µM) | 8 (≈ 12 µM) | 1 (≈ 1.5 µM) | 0.25 (≈ 0.375 µM) | 0.5 (≈ 0.75 µM) | 0.5 (≈ 0.75 µM) | 4 (≈ 6 µM) | 0.016 (≈ 0.024 µM) | 0.25 (≈ 0.375 µM) | 1 (≈ 1.5 µM) | 0.25 (≈ 0.375 µM) | 0.5 (≈ 0.75 µM) | 0.13 (≈ 0.195 µM) | 8 (≈ 12 µM) | 4 (≈ 6 µM) | > 128 | 0.13 (≈ 0.195 µM) | MIC [2, 26]: 0.5 µg/mL (≈ 0.75 µM); MIC [22]: 0.25 µg/mL (≈ 0.375 µM); MIC [23]: 2 µg/mL (≈ 3 µM); MIC [24]: 0.063 µg/mL (≈ 0.0945 µM); MIC [25]: ≤ 0.008 µg/mL
3 | CC(C)(O/N=C(\C(=O)NC1C(=O)N2C(C(=O)[O-])=C(CSc3nc(N)cc(N)[n+]3C3CC3)CSC12)c1csc(N)n1)C(=O)O (stereo not drawn) [Compound I-48] | 64 (≈ 98.5 µM) | 0.13 (≈ 0.2 µM) | 4 (≈ 6.16 µM) | 2 (≈ 3.08 µM) | 4 (≈ 6.16 µM) | 2 (≈ 3.08 µM) | 0.5 (≈ 0.77 µM) | 0.25 (≈ 0.385 µM) | 0.5 (≈ 0.77 µM) | 4 (≈ 6.16 µM) | ≤ 0.008 | 0.13 (≈ 0.2 µM) | 0.063 (≈ 0.097 µM) | 0.13 (≈ 0.2 µM) | 0.5 (≈ 0.77 µM) | 0.063 (≈ 0.097 µM) | 4 (≈ 6.16 µM) | 2 (≈ 3.08 µM) | > 128 | 0.063 (≈ 0.097 µM) | MIC [2, 26]: 0.13 µg/mL (≈ 0.2 µM); MIC [22]: 0.13 µg/mL (≈ 0.2 µM); MIC [23]: 2 µg/mL (≈ 3.08 µM); MIC [24]: 0.031 µg/mL (≈ 0.0477 µM); MIC [25]: ≤ 0.008 µg/mL
4 | C=CCO/N=C(\C(=O)NC1C(=O)N2C(C(=O)[O-])=C(CSc3nc(N)cc(N)[n+]3C)CSC12)c1csc(N)n1 (stereo not drawn) [Compound I-49] | 32 (≈ 55.4 µM) | 0.5 (≈ 0.866 µM) | 8 (≈ 13.8 µM) | 0.13 (≈ 0.225 µM) | 16 (≈ 27.7 µM) | 1 (≈ 1.73 µM) | 0.25 (≈ 0.433 µM) | 0.5 (≈ 0.866 µM) | 0.031 (≈ 0.0537 µM) | 0.25 (≈ 0.433 µM) | ≤ 0.008 | 0.25 (≈ 0.433 µM) | 0.5 (≈ 0.866 µM) | 0.25 (≈ 0.433 µM) | 1 (≈ 1.73 µM) | 0.063 (≈ 0.109 µM) | 0.25 (≈ 0.433 µM) | 1 (≈ 1.73 µM) | 16 (≈ 27.7 µM) | 0.016 (≈ 0.0277 µM) | MIC [2, 26]: 0.25 µg/mL (≈ 0.433 µM); MIC [22]: 0.25 µg/mL (≈ 0.433 µM); MIC [23]: 8 µg/mL (≈ 13.8 µM); MIC [24]: 0.031 µg/mL (≈ 0.0537 µM); MIC [25]: ≤ 0.008 µg/mL
5 | CCO/N=C(\C(=O)NC1C(=O)N2C(C(=O)[O-])=C(CSc3nc(N)cc(N)[n+]3CC)CSC12)c1csc(N)n1 (stereo not drawn) [Compound I-12] | 16 (≈ 27.6 µM) | 0.25 (≈ 0.431 µM) | 4 (≈ 6.9 µM) | 0.063 (≈ 0.109 µM) | 8 (≈ 13.8 µM) | 0.5 (≈ 0.863 µM) | 0.063 (≈ 0.109 µM) | 0.13 (≈ 0.224 µM) | ≤ 0.008 | 0.25 (≈ 0.431 µM) | ≤ 0.008 | 0.13 (≈ 0.224 µM) | 0.13 (≈ 0.224 µM) | 0.063 (≈ 0.109 µM) | 0.5 (≈ 0.863 µM) | 0.031 (≈ 0.0535 µM) | 0.25 (≈ 0.431 µM) | 1 (≈ 1.73 µM) | 32 (≈ 55.2 µM) | ≤ 0.008 | MIC ([2]; ATCC11060, 20 h): 0.13 µg/mL (≈ 0.224 µM); MIC [22]: 0.063 µg/mL (≈ 0.109 µM); MIC [23]: 2 µg/mL (≈ 3.45 µM); MIC [24]: ≤ 0.008 µg/mL; MIC [25]: ≤ 0.008 µg/mL
6 | CC(C)(O/N=C(\C(=O)NC1C(=O)N2C(C(=O)[O-])=C(CSc3nc(N)cc(N)[n+]3-c3ccc(O)cc3)CSC12)c1csc(N)n1)C(=O)O (stereo not drawn) [Compound I-36] | 32 (≈ 45.6 µM) | 0.13 (≈ 0.185 µM) | 16 (≈ 22.8 µM) | 2 (≈ 2.85 µM) | 2 (≈ 2.85 µM) | 2 (≈ 2.85 µM) | 0.13 (≈ 0.185 µM) | 0.5 (≈ 0.712 µM) | 0.25 (≈ 0.356 µM) | 2 (≈ 2.85 µM) | ≤ 0.008 | 0.25 (≈ 0.356 µM) | 0.13 (≈ 0.185 µM) | 0.25 (≈ 0.356 µM) | 0.5 (≈ 0.712 µM) | 0.063 (≈ 0.0898 µM) | 4 (≈ 5.7 µM) | 1 (≈ 1.42 µM) | > 128 | 0.13 (≈ 0.185 µM) | MIC [2, 26]: 0.25 µg/mL (≈ 0.356 µM); MIC [22]: 0.25 µg/mL (≈ 0.356 µM); MIC [23]: 1 µg/mL (≈ 1.42 µM); MIC [24]: 0.063 µg/mL (≈ 0.0898 µM); MIC [25]: ≤ 0.008 µg/mL
